Measurements reported in publication PMC5407854, “Inhibitor of ppGalNAc-T3-mediated O-glycosylation blocks cancer cell invasiveness and lowers FGF23 levels” (eLife, 2017).

T1: ppGalNAc-T3 (Homo sapiens, UniProt Q14435)
T1 construct: gene GALNT3; purified lumenal domain (containing catalytic and lectin domains)
T1 sequence (Q14435 38-633 limits assumed): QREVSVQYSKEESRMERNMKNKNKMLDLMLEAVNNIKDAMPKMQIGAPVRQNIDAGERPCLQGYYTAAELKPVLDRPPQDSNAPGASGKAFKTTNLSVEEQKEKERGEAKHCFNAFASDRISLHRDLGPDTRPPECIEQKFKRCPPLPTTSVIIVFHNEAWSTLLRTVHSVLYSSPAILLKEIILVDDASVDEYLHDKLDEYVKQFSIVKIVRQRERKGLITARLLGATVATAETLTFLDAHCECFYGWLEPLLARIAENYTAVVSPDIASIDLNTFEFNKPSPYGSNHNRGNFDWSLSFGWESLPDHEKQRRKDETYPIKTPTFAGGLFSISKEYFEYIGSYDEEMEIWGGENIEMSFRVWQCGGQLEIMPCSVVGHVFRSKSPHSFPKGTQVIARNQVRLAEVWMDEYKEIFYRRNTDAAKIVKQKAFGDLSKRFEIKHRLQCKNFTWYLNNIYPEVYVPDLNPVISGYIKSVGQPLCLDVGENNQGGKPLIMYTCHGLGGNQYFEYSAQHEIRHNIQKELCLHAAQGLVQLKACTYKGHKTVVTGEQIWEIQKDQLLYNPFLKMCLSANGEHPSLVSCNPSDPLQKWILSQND


Columns and labels:
ppGalNAc-T3 = target: T1, ppGalNAc-T3; experiment: intrinsic tryptophan fluorescence quenching; also UDP-Glo inhibition of purified enzyme (IC50 […]); format: binding
[1] = anti-FLAG immunoblot of cell lysates, with or without chloroquine; settings: glycan lost; control: untreated

Row | Kd (ppGalNAc-T3) [µM] | Molecule | expression_or_secretion [1]
1 | ~17 | O=C(Nc1ccc(Nc2ccncc2)cc1)c1ccc(Nc2ccnc3ccc([N+](=O)[O-])cc23)cc1 [compound 1614, T3Inh-1] | –
2 | – | FGF23: T3Inh-1 (protein) parent chain: MLGARLRLWVCALCSVCSMSVLRAYPNASPLLGSSWGGLIHLYTATARNSYHLQIHKNGHVDGAPHQTIYSALMIRSEDAGFVVITGVMSRRYLCMDFRGNIFGSHYFDPENCRFQHQTLENGYDVYHSPQYHFLVSLGRAKRAFLPGMNPPPYSQFLSRRNEIPLIHFNTPIPRRHTRSAEDDSERDPLNVLKPRARMTPAPASCSQELPSAEDNSPMASDPLGVVRGGRVNTHAGGTGPEGCRPFAKFI | no change
